Assay results from patent US10039753B2, “Imidazo[4,5-c]quinoline and imidazo[4,5-c][1,5]naphthyridine derivatives as LRRK2 inhibitors” (Pfizer Inc., priority 2015, dated 2018).
Counter-ions that a name gives are not always drawn. Like-named read-outs stand apart in the source and are kept apart here.

What was measured:
[1] = target: T1, GST-tagged truncated LRRK2 (Homo sapiens, UniProt Q5S007); assay: LRRK2 Assay, Format 2 (Lantha Screen), WT; type: biochemical
T1 construct: GST-tagged truncated LRRK2 from Invitrogen (Cat # PV4874); GST; purchased Invitrogen PV4874
T1 sequence (Q5S007 970-2527 limits assumed): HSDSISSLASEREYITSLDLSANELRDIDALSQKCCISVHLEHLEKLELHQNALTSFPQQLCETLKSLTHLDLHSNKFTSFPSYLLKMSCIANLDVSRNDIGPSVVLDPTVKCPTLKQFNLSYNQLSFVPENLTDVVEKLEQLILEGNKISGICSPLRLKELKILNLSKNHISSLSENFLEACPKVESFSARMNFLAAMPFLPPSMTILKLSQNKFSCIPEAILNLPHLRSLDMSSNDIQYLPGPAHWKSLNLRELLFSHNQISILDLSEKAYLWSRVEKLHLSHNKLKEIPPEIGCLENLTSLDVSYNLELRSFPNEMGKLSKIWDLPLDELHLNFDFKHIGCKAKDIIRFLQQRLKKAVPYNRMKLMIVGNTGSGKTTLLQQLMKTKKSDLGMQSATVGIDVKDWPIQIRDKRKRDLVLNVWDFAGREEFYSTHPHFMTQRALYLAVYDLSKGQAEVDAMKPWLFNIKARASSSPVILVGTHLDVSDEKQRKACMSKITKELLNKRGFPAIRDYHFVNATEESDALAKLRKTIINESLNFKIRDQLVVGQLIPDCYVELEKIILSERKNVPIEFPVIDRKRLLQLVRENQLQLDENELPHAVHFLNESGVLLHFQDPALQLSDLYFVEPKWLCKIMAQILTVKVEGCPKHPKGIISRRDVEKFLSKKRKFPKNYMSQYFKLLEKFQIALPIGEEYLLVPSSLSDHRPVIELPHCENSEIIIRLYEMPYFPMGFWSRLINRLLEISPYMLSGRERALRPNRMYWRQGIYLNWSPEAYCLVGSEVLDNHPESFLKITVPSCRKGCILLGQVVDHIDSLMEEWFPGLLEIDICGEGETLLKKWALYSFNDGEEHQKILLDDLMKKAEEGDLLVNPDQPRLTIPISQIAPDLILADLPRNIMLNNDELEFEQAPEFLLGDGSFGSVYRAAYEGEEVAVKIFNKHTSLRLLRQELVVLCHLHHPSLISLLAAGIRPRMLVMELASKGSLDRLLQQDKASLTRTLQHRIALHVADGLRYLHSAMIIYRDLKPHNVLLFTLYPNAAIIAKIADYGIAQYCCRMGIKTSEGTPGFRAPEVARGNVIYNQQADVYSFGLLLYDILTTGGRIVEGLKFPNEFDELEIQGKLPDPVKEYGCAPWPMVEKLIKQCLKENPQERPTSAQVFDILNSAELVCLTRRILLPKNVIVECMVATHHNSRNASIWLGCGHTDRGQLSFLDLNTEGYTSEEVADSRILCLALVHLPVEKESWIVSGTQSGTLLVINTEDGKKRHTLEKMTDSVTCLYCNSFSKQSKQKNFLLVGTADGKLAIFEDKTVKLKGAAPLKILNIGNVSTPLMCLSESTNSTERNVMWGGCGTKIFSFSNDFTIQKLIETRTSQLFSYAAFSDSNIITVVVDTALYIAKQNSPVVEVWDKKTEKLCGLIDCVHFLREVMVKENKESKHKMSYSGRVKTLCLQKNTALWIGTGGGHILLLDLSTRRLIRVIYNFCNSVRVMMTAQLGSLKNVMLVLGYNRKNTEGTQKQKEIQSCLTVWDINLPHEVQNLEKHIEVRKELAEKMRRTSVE
Method: (§1) LRRK2 kinase activity was measured using Lantha Screen technology from Invitrogen. GST-tagged truncated LRRK2 from Invitrogen (Cat # PV4874) was incubated with a fluorescein-labeled peptide substrate based upon ezrin/radixin/moesin (ERM), also known as LRRKtide (Invitrogen cat # PR8976A), in the presence of a dose response of compound. Upon completion, the assay was stopped and detected with a terbium labeled anti-phospho-ERM antibody (Invitrogen, cat # PR8975A). […] Using Echo acoustic dispensing, 60 nL of compound was transferred to a low volume Corning 384-well assay plate. 3 μL of a working solution of substrate (200 nM LRRKtide, […]) prepared in assay buffer (50 mM HEPES, pH 7.5, 3 mM MgCl2, with 2 mM DTT and 0.01% Brij35 added fresh) was added to the 60 nL compound assay plate. The kinase reaction was started with […] of a working solution of LRRK2 enzyme at a concentration of […]. The final reaction concentrations were 100 nM LRRKtide, […], […] LRRK2 enzyme and a compound dose response with a top dose of 3 mM. The reaction was allowed to progress at room temperature for 30 minutes and then stopped with the addition of […] of detection buffer (20 mM Tris pH 7.6, 0.01% NP-40, 6 mM EDTA with 2 nM terbium labeled anti-phospho-ERM). After an incubation of 1 hour at room temperature, the plate was read on an Envision with an excitation wavelength of 340 nm and a reading emission at both 520 nm and 495 nm. The ratio of the 520 nm and 495 nm emission was used to analyze the data. Inhibition of mutant G2019S LRRK2 (Invitrogen cat # PV4881) was measured in the exact same method. All final concentrations of substrate ATP and enzyme were the same.

mutant G2019S LRRK2 = mutant G2019S LRRK2 (Homo sapiens, UniProt Q5S007, G2019S); assay: LRRK2 Assay, Format 2 (Lantha Screen), G2019S mutant; type: biochemical; parameters: purchased Invitrogen PV4881
mutant G2019S LRRK2, sequence (Q5S007 970-2527 G2019S limits assumed): as the sequence (Q5S007 970-2527 limits assumed) above, with G1050S counted along it
Method: as §1

[2] = geometric mean of 2-4 determinations unless otherwise indicated (a: >=5; b: single determination)
[3] = geometric mean of 2-4 determinations unless otherwise indicated (a: >=5; b: single determination), read-out: LRRK2, Format 2 G2019S IC50

| Compound | IC50 [1, 2] [nM] | IC50 (mutant G2019S LRRK2; [3]) [nM] | IC50 ([1]; 100 nM LRRKtide, 1000 mM ATP (so in the source), 30 minutes at room temperature) [nM] | IC50 (mutant G2019S LRRK2; 100 nM LRRKtide, 1000 mM ATP (so in the source), 30 minutes at room temperature, read-out: LRRK2, Format 2 G2019S mutant IC50) [nM] |
| --- | --- | --- | --- | --- |
| Cc1cc(Cc2nc3cnc4ccc(C#N)cc4c3n2[C@H]2CC[C@@H](F)C2)no1 (single isomer, unassigned) [Example C66] | 29.8 | 42.2 |  |  |
| Cc1cc(Cc2nc3cnc4ccc(C#N)cc4c3n2[C@H]2CCCC[C@H]2O)no1 (racemic) [Example 242, 1-(cis-2-hydroxycyclohexyl)-2-[(5-methyl-1,2-oxazol-3-yl)methyl]-1H-imidazo[4,5-c]quinoline-8-carbonitrile, formate salt] | 122 | 119 |  |  |
| N#CCc1nc2cnc3ccc(F)cc3c2n1[C@@H]1CC[C@H](F)C1 (single isomer, unassigned; ent-1) [Example 170, {8-fluoro-1-(cis-3-fluorocyclopentyl)-1H-imidazo[4,5-c]quinolin-2-yl}acetonitrile, ENT-1] | 64.4 | 106 |  |  |
| Cc1cc(Cc2nc3cnc4ccc(C#N)cc4c3n2[C@@H]2CC[C@H](F)C2)no1 (single isomer, unassigned) [Example 97] | 5.14 | 7.79 |  |  |
| C[C@@H]1C[C@H](n2c(C(F)c3ccon3)nc3cnc4ccc(Cl)cc4c32)CCO1 (single isomer, unassigned) [Example 237] | 4 | 3.92 |  |  |
| Cc1cn(Cc2nc3cnc4ccc(Cl)cc4c3n2[C@H]2CC[C@@H](F)C2)nn1 (single isomer, unassigned) [Example C55, 8-chloro-1-(cis-3-fluorocyclopentyl)-2-[(4-methyl-1H-1,2,3-triazol-1-yl)methyl]-1H-imidazo[4,5-c]quinoline] | 18.2 | 22.7 |  |  |
| Cc1cc(Cc2nc3cnc4ccc(C#N)cc4c3n2C2CCCC(F)(F)C2)no1 (centres unmarked) [Example 244, 1-(3,3-difluorocyclohexyl)-2-[(5-methyl-1,2-oxazol-3-yl)methyl]-1H-imidazo[4,5-c]quinoline-8-carbonitrile, formate salt] | 79.4 | 89.7 |  |  |
| Cc1cc(Cc2nc3cnc4ccc(C#N)cc4c3n2[C@@H](C)CF)no1 [Example 243, 1-[(2S)-1-fluoropropan-2-yl]-2-[(5-methyl-1,2-oxazol-3-yl)methyl]-1H-imidazo[4,5-c]quinoline-8-carbonitrile, formate salt] | 48.7 | 85.9 |  |  |
| COCc1cn(Cc2nc3cnc4ccc(C#N)cc4c3n2[C@@H]2CC[C@H](F)C2)nn1 (single isomer, unassigned; ent-1) [Example 132, 1-(cis-3-fluorocyclopentyl)-2-{[4-(methoxymethyl)-1H-1,2,3-triazol-1-yl]methyl}-1H-imidazo[4,5-c]quinoline-8-carbonitrile, ENT-1] | 7.49 | 10.8 |  |  |
| CC(C)c1cn(Cc2nc3cnc4ccc(C#N)cc4c3n2[C@@H]2CCO[C@H](C)C2)nn1 [Example 126, 1-[(2R,4R)-2-methyltetrahydro-2H-pyran-4-yl]-2-{[4-(propan-2-yl)-1H-1,2,3-triazol-1-yl]methyl}-1H-imidazo[4,5-c]quinoline-8-carbonitrile, formate salt] | 8.39 | 8.04 |  |  |
| COCc1cn(Cc2nc3cnc4ccc(C#N)cc4c3n2C2CCC(F)C2)nn1 (single isomer, unassigned; ent-2) [enantiomer of Example 132, 1-(cis-3-fluorocyclopentyl)-2-{[4-(methoxymethyl)-1H-1,2,3-triazol-1-yl]methyl}-1H-imidazo[4,5-c]quinoline-8-carbonitrile, ENT-2] |  |  | 26.8 | 34.5 |
| Cc1cc(Cc2nc3cnc4ccc(C#N)cc4c3n2CC(C)(F)F)no1 [Example 248, 1-(2,2-difluoropropyl)-2-[(5-methyl-1,2-oxazol-3-yl)methyl]-1H-imidazo[4,5-c]quinoline-8-carbonitrile] | 15 | 17.7 |  |  |

Results, then the molecule that gave them:

| IC50 [1, 2] [nM] | IC50 (mutant G2019S LRRK2; [3]) [nM] | IC50 ([1]; 100 nM LRRKtide, 1000 mM ATP (so in the source), 30 minutes at room temperature) [nM] | IC50 (mutant G2019S LRRK2; 100 nM LRRKtide, 1000 mM ATP (so in the source), 30 minutes at room temperature, read-out: LRRK2, Format 2 G2019S mutant IC50) [nM] | Compound |
| --- | --- | --- | --- | --- |
| 3.46 | 2.28 |  |  | C[C@@H]1C[C@H](n2c(Cc3csnn3)nc3cnc4ccc(C#N)cc4c32)CCO1 [Example 195, 1-[(2R,4R)-2-methyltetrahydro-2H-pyran-4-yl]-2-(1,2,3-thiadiazol-4-ylmethyl)-1H-imidazo[4,5-c]quinoline-8-carbonitrile] |
| 6.19 | 5.61 |  |  | C[C@@H]1C[C@H](n2c(Cn3cccn3)nc3cnc4ccc(C#N)cc4c32)CCO1 [Example 121, 1-[(2R,4R)-2-methyltetrahydro-2H-pyran-4-yl]-2-(1H-pyrazol-1-ylmethyl)-1H-imidazo[4,5-c]quinoline-8-carbonitrile, formate salt] |
| 10.3 | 11.8 |  |  | Cc1cn(Cc2nc3cnc4ccc(F)cc4c3n2[C@@H]2CCO[C@H](C)C2)nn1 [Example 199, 8-fluoro-1-[(2R,4R)-2-methyltetrahydro-2H-pyran-4-yl]-2-[(4-methyl-1H-1,2,3-triazol-1-yl)methyl]-1H-imidazo[4,5-c]quinoline] |
| 6.31 | 4.65 |  |  | COc1ccc(Cc2nc3cnc4ccc(C#N)cc4c3n2[C@@H]2CCO[C@H](C)C2)nc1 [Example 96, 2-[(5-Methoxypyridin-2-yl)methyl]-1-[(2R,4R)-2-methyltetrahydro-2H-pyran-4-yl]-1H-imidazo[4,5-c]quinoline-8-carbonitrile] |
| 6.39 | 6.94 |  |  | C[C@@H]1C[C@H](n2c(Cn3nccn3)nc3cnc4ccc(Cl)cc4c32)CCO1 [Example 161, 8-chloro-1-[(2R,4R)-2-methyltetrahydro-2H-pyran-4-yl]-2-(2H-1,2,3-triazol-2-ylmethyl)-1H-imidazo[4,5-c]quinoline, formate salt] |
| 9.08 | 8.59 |  |  | C[C@@H]1C[C@H](n2c(Cc3ccncn3)nc3cnc4ccc(C#N)cc4c32)CCO1 [Example 222, 1-[(2R,4R)-2-methyltetrahydro-2H-pyran-4-yl]-2-(pyrimidin-4-ylmethyl)-1H-imidazo[4,5-c]quinoline-8-carbonitrile] |
| 8.26 | 8.43 |  |  | C[C@@H]1C[C@H](n2c(Cc3cn4ccccc4n3)nc3cnc4ccc(Cl)cc4c32)CCO1 [Example 167, 8-chloro-2-(imidazo[1,2-a]pyridin-2-ylmethyl)-1-[(2R,4R)-2-methyltetrahydro-2H-pyran-4-yl]-1H-imidazo[4,5-c]quinoline, trifluoroacetate salt] |
| 5.88 | 6.18 |  |  | C[C@@H]1C[C@H](n2c(Cc3cc(=O)n4ccccc4n3)nc3cnc4ccc(Cl)cc4c32)CCO1 [Example 164, 2-({8-chloro-1-[(2R,4R)-2-methyltetrahydro-2H-pyran-4-yl]-1H-imidazo[4,5-c]quinolin-2-yl}methyl)-4H-pyrido[1,2-a]pyrimidin-4-one, formate salt] |
| 5.64 | 3.32 |  |  | C[C@@H]1C[C@H](n2c(Cc3ccncn3)nc3cnc4ccc(C(F)(F)F)cc4c32)CCO1 [Example 178, 1-[(2R,4R)-2-methyltetrahydro-2H-pyran-4-yl]-2-(pyrimidin-4-ylmethyl)-8-(trifluoromethyl)-1H-imidazo[4,5-c]quinoline] |
| 7.02 | 8.01 |  |  | C[C@@H]1C[C@H](n2c(Cc3cnco3)nc3cnc4ccc(Cl)cc4c32)CCO1 [Example 127, 8-chloro-1-[(2R,4R)-2-methyltetrahydro-2H-pyran-4-yl]-2-(1,3-oxazol-5-ylmethyl)-1H-imidazo[4,5-c]quinoline, formate salt] |
| 7.35 | 7.38 |  |  | C[C@@H]1C[C@H](n2c(Cc3cc4n(n3)CCC4)nc3cnc4ccc(Cl)cc4c32)CCO1 [Example 166, 8-chloro-2-(5,6-dihydro-4H-pyrrolo[1,2-b]pyrazol-2-ylmethyl)-1-[(2R,4R)-2-methyltetrahydro-2H-pyran-4-yl]-1H-imidazo[4,5-c]quinoline, trifluoroacetate salt] |
| 12.4 | 14.3 |  |  | Cc1cc(Cc2nc3cnc4ccc(F)cc4c3n2[C@@H]2CCO[C@H](C)C2)no1 [Example 200, 8-fluoro-2-[(5-methyl-1,2-oxazol-3-yl)methyl]-1-[(2R,4R)-2-methyltetrahydro-2H-pyran-4-yl]-1H-imidazo[4,5-c]quinoline] |
| 8.47 | 8.15 |  |  | Cc1cnn(Cc2nc3cnc4ccc(Cl)cc4c3n2[C@@H]2CCO[C@H](C)C2)c1 [Example 212, 8-chloro-2-[(4-methyl-1H-pyrazol-1-yl)methyl]-1-[(2R,4R)-2-methyltetrahydro-2H-pyran-4-yl]-1H-imidazo[4,5-c]quinoline] |
